Measured values published in patent US7141590B2, “Pharmaceutical uses and synthesis of nicotinanilide-N-oxides” (UCB SA, priority 2000, dated 2006).

Columns and labels:
[1] = biological target: T1, IL-8 type β receptor (IL-8Rβ) (Homo sapiens, UniProt P25025); experiment: [125I] IL-8 binding assay (WGA-SPA beads, IL-8Rβ membranes); settings: 20 uM compound; [125I] IL-8, IL-8Rβ membranes
T1 construct: purchased BioSignal, Montreal, Canada; host or cells: Sf9 cells
T1 sequence (P25025 1-360): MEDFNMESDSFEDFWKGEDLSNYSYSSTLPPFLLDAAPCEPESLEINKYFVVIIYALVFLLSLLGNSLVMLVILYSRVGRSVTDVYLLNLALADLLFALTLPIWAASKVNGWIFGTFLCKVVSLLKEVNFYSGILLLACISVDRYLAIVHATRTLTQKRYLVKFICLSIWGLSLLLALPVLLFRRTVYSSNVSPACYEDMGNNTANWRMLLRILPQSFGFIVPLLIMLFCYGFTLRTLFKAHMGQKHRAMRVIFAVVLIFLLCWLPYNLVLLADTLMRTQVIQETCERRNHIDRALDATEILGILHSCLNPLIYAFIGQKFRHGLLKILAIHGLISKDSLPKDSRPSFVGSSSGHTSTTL
Procedure: IL-8 (human recombinant) was obtained from NEN Life Science Products, Inc., Boston, Mass., with specific activity of 2200 Ci/mmol. Recombinant human IL-8 was obtained from R&D Systems, Minneapolis, Minn. IL-8 type β receptor membranes were prepared from […] co-expressed with Gαi3β1γ2 proteins by BioSignal™, Montreal, Canada. Wheat Germ Agglutinin Scintillation Proximity Assay Beads were obtained from Amersham Pharmacia Biotech, Piscataway, N.J. All assays were performed in a 96-well, solvent resistant, white PicoPlate obtained from Packard Instruments. […] The assay was initiated by the addition of WGA-SPA beads in 25 mM Hepes (pH 7.4) containing 2 mM CaCl2 and 1 mM MgCl2. After 4–6 hours of gentle agitation at room temperature, the plate was counted on the Packard TopCount liquid scintillation counter.

[2] = system: polymorphonuclear neutrophils (PMNs); experiment: GRO-α driven chemotaxis assay with PMNs (ChemoTx plate); format: cell-based; settings: 20 μM compound; 50 nM GRO-α, human PMNs
Procedure: Peripheral blood from healthy human volunteers was collected into heparin, diluted in an equal volume of PBS, layered over Ficoll-Paque Plus (Pharmacia Biotech, Uppsala, Sweden), and spun at 400×g for 30 min. The PMN rich fraction was removed and residual erythrocytes were lysed with hypotonic saline. The polymorphonuclear neutrophils (PMNs) were washed once with assay buffer (Dulbecco's PBS containing divalent cations and 0.1% endotoxin-free BSA), and resuspended at 1E7 cells/mL in the same buffer. PMNs were loaded with 5 μM calcein AM (Molecular Probes, Eugene, Oreg.), washed twice and resuspended in assay buffer.
Growth Regulatory Oncogene a (GRO-α) driven chemotaxis assays were performed according to the following protocol. […] Test compounds were dissolved in DMSO (100%) at 20 mM and diluted in assay buffer to the desired concentrations; final DMSO concentration was 0.2%. Neutrophil migration proceeded for 40 min at 37° C. in a humidified incubator with 5% CO2. After removing nonmigrated cells from the top of the plate, migrated cells were quantified by reading fluorescence on a Wallac Victor.
The ratio of the positive to negative controls represents the chemotactic index of the cells. The results from this assay are reported in Tables 3–5, under the column headings IL-8 and GRO-α, and under the sub-column headings ChTx (for chemotaxis).

CN(C)c1ccc(C(=O)Nc2ccc(F)cc2)c[n+]1[O-]
IL-8 Binding @ 20 uM, % [1]: * (“*” for % values of less than or equal to 40)

O=C(Nc1ccc(F)cc1)c1ccc(NCc2ccccc2)[n+]([O-])c1
IL-8 Binding @ 20 uM, % [1]: * (“*” for % values of less than or equal to 40) | GRO-α ChTx @ 20 μM, % [2]: * (“*” for % values of less than or equal to 40)

O=C(Nc1ccc(F)cc1)c1ccc(Nc2ccccc2)[n+]([O-])c1
IL-8 Binding @ 20 uM, % [1]: ** (“**” for % values greater than 40) | GRO-α ChTx @ 20 μM, % [2]: * (“*” for % values of less than or equal to 40)

CNc1ccc(C(=O)Nc2ccc(F)cc2)c[n+]1[O-]
IL-8 Binding @ 20 uM, % [1]: ** (“**” for % values greater than 40) | GRO-α ChTx @ 20 μM, % [2]: ** (“**” for % values greater than 40)

O=C(Nc1ccc(F)cc1)c1ccc(-n2ccnc2)[n+]([O-])c1
IL-8 Binding @ 20 uM, % [1]: * (“*” for % values of less than or equal to 40) | GRO-α ChTx @ 20 μM, % [2]: * (“*” for % values of less than or equal to 40)

O=C(Nc1ccc(F)cc1)c1ccc(NCCO)[n+]([O-])c1
IL-8 Binding @ 20 uM, % [1]: * (“*” for % values of less than or equal to 40) | GRO-α ChTx @ 20 μM, % [2]: ** (“**” for % values greater than 40)

CCCCCNc1ccc(C(=O)Nc2ccc(F)cc2)c[n+]1[O-]
IL-8 Binding @ 20 uM, % [1]: * (“*” for % values of less than or equal to 40) | GRO-α ChTx @ 20 μM, % [2]: ** (“**” for % values greater than 40)

O=C(Nc1ccc(F)cc1)c1ccc(N2CCCC2)[n+]([O-])c1
IL-8 Binding @ 20 uM, % [1]: * (“*” for % values of less than or equal to 40) | GRO-α ChTx @ 20 μM, % [2]: * (“*” for % values of less than or equal to 40)

Nc1ccc(C(=O)Nc2ccc(F)cc2)c[n+]1[O-]
IL-8 Binding @ 20 uM, % [1]: * (“*” for % values of less than or equal to 40) | GRO-α ChTx @ 20 μM, % [2]: * (“*” for % values of less than or equal to 40)

COc1ccc(C(=O)Nc2ccc(F)cc2)c[n+]1[O-]
IL-8 Binding @ 20 uM, % [1]: * (“*” for % values of less than or equal to 40) | GRO-α ChTx @ 20 μM, % [2]: ** (“**” for % values greater than 40)

CSc1ccc(C(=O)Nc2ccc(F)cc2)c[n+]1[O-]
IL-8 Binding @ 20 uM, % [1]: ** (“**” for % values greater than 40) | GRO-α ChTx @ 20 μM, % [2]: ** (“**” for % values greater than 40)

CCSc1ccc(C(=O)Nc2ccc(F)cc2)c[n+]1[O-]
IL-8 Binding @ 20 uM, % [1]: * (“*” for % values of less than or equal to 40) | GRO-α ChTx @ 20 μM, % [2]: * (“*” for % values of less than or equal to 40)

CC(C)S(=O)(=O)c1ccc(C(=O)Nc2ccc(F)cc2)c[n+]1[O-]
IL-8 Binding @ 20 uM, % [1]: ** (“**” for % values greater than 40) | GRO-α ChTx @ 20 μM, % [2]: ** (“**” for % values greater than 40)

O=C(O)c1cccc(S(=O)(=O)c2ccc(C(=O)Nc3ccc(F)cc3)c[n+]2[O-])c1
IL-8 Binding @ 20 uM, % [1]: ** (“**” for % values greater than 40) | GRO-α ChTx @ 20 μM, % [2]: * (“*” for % values of less than or equal to 40)

O=C(O)CCS(=O)(=O)c1ccc(C(=O)Nc2ccc(F)cc2)c[n+]1[O-]
IL-8 Binding @ 20 uM, % [1]: ** (“**” for % values greater than 40) | GRO-α ChTx @ 20 μM, % [2]: * (“*” for % values of less than or equal to 40)

O=C(Nc1ccc(F)cc1)c1ccc(S(=O)(=O)c2ccc(F)cc2)[n+]([O-])c1
IL-8 Binding @ 20 uM, % [1]: ** (“**” for % values greater than 40) | GRO-α ChTx @ 20 μM, % [2]: ** (“**” for % values greater than 40)

Cc1cccc(S(=O)(=O)c2ccc(C(=O)Nc3ccc(F)cc3)c[n+]2[O-])c1
IL-8 Binding @ 20 uM, % [1]: * (“*” for % values of less than or equal to 40) | GRO-α ChTx @ 20 μM, % [2]: ** (“**” for % values greater than 40)

Cc1ccc(C(=O)Nc2ccc(F)cc2)c[n+]1[O-]
IL-8 Binding @ 20 uM, % [1]: *(2) (“*” for % values of less than or equal to 40) | GRO-α ChTx @ 20 μM, % [2]: * (“*” for % values of less than or equal to 40)

O=C(Nc1cccc(Br)c1)c1ccc(Cl)[n+]([O-])c1
IL-8 Binding @ 20 uM, % [1]: * (“*” for % values of less than or equal to 40) | GRO-α ChTx @ 20 μM, % [2]: ** (“**” for % values greater than 40)

O=C(Nc1ccc(F)c(C(F)(F)F)c1)c1ccc(Cl)[n+]([O-])c1
IL-8 Binding @ 20 uM, % [1]: * (“*” for % values of less than or equal to 40) | GRO-α ChTx @ 20 μM, % [2]: ** (“**” for % values greater than 40)

O=C(Nc1cccc(I)c1)c1ccc(Cl)[n+]([O-])c1
IL-8 Binding @ 20 uM, % [1]: * (“*” for % values of less than or equal to 40) | GRO-α ChTx @ 20 μM, % [2]: ** (“**” for % values greater than 40)

O=C(Nc1ccc(OC(F)(F)F)cc1)c1ccc(Cl)[n+]([O-])c1
IL-8 Binding @ 20 uM, % [1]: * (“*” for % values of less than or equal to 40) | GRO-α ChTx @ 20 μM, % [2]: * (“*” for % values of less than or equal to 40)

O=C(Nc1ccc(OCc2ccccc2)cc1)c1ccc(Cl)[n+]([O-])c1
IL-8 Binding @ 20 uM, % [1]: * (“*” for % values of less than or equal to 40) | GRO-α ChTx @ 20 μM, % [2]: ** (“**” for % values greater than 40)

O=C(Nc1ccc(I)c(Cl)c1)c1ccc(Cl)[n+]([O-])c1
IL-8 Binding @ 20 uM, % [1]: * (“*” for % values of less than or equal to 40) | GRO-α ChTx @ 20 μM, % [2]: ** (“**” for % values greater than 40)

Cc1cc(NC(=O)c2ccc(Cl)[n+]([O-])c2)ccc1Br
IL-8 Binding @ 20 uM, % [1]: * (“*” for % values of less than or equal to 40) | GRO-α ChTx @ 20 μM, % [2]: ** (“**” for % values greater than 40)

CC(C)(C)OC(=O)c1cccc(NC(=O)c2ccc(Cl)[n+]([O-])c2)c1
GRO-α ChTx @ 20 μM, % [2]: ** (“**” for % values greater than 40)

O=C(O)c1cccc(NC(=O)c2ccc(Cl)[n+]([O-])c2)c1
GRO-α ChTx @ 20 μM, % [2]: * (“*” for % values of less than or equal to 40)

COc1ccc(C(=O)O)cc1NC(=O)c1ccc(Cl)[n+]([O-])c1
GRO-α ChTx @ 20 μM, % [2]: ** (“**” for % values greater than 40)

O=C(Nc1cc(F)c(F)c(C(=O)O)c1F)c1ccc(Cl)[n+]([O-])c1
GRO-α ChTx @ 20 μM, % [2]: * (“*” for % values of less than or equal to 40)

O=C(Nc1ccc(O)c(C(=O)O)c1)c1ccc(Cl)[n+]([O-])c1
GRO-α ChTx @ 20 μM, % [2]: * (“*” for % values of less than or equal to 40)

O=C(Nc1ccc(F)c(F)c1C(=O)O)c1ccc(Cl)[n+]([O-])c1
GRO-α ChTx @ 20 μM, % [2]: ** (“**” for % values greater than 40)

CCCCc1ccc(NC(=O)c2ccc(Cl)[n+]([O-])c2)cc1
GRO-α ChTx @ 20 μM, % [2]: ** (“**” for % values greater than 40)

COC(=O)c1ccc(NC(=O)c2ccc(Cl)[n+]([O-])c2)cc1
GRO-α ChTx @ 20 μM, % [2]: ** (“**” for % values greater than 40)

O=C(Nc1cccc(F)c1F)c1ccc(Cl)[n+]([O-])c1
GRO-α ChTx @ 20 μM, % [2]: ** (“**” for % values greater than 40)

CSc1ccccc1NC(=O)c1ccc(Cl)[n+]([O-])c1
GRO-α ChTx @ 20 μM, % [2]: ** (“**” for % values greater than 40)

CSc1ccc(NC(=O)c2ccc(Cl)[n+]([O-])c2)cc1
GRO-α ChTx @ 20 μM, % [2]: ** (“**” for % values greater than 40)

N#Cc1cccc(NC(=O)c2ccc(Cl)[n+]([O-])c2)c1
GRO-α ChTx @ 20 μM, % [2]: ** (“**” for % values greater than 40)

COc1cc(NC(=O)c2ccc(Cl)[n+]([O-])c2)cc(OC)c1OC
GRO-α ChTx @ 20 μM, % [2]: * (“*” for % values of less than or equal to 40)

O=C(Nc1ccc(F)cc1)c1ccc(Cl)[n+]([O-])c1Cl
GRO-α ChTx @ 20 μM, % [2]: ** (“**” for % values greater than 40)

Cc1ccc(C(=O)Nc2ccc(F)cc2)c(Cl)[n+]1[O-]
GRO-α ChTx @ 20 μM, % [2]: * (“*” for % values of less than or equal to 40)

O=C(Nc1ccc(F)cc1)c1ccc(Br)[n+]([O-])c1 [Br, 6-BROMO-N-(4-FLUORO-PHENYL)-1-OXY-NICOTINAMIDE]
GRO-α ChTx @ 20 μM, % [2]: ** (“**” for % values greater than 40)

O=C(Nc1ccc(F)cc1)c1cc(Cl)c(Cl)[n+]([O-])c1 [drawing 126]
GRO-α ChTx @ 20 μM, % [2]: ** (“**” for % values greater than 40)
